Reference: ChEMBL document CHEMBL5393441, “Bicyclic heterocyclic compounds as inhibitors ofbcdin3d activity” (2022)
Active and inactive are the calls of the source. The calls are words filed in the database; no cut-off is given here.

Experiments:
Mus musculus = test: Antiinflammatory activity in sheep red blood cells (SRBCs)-induced delayed hypersensitivity male CD-1/ICR mouse model at 30 mg/kg administered once daily for 7 days; assay type: functional, organism-based; conditions: time 7.0 day
[1] = molecular target: T1, RNA 5'-monophosphate methyltransferase (Homo sapiens) (UniProt Q7Z5W3); test: Inhibition of BCDIN3D in activated CD4+ T cells isolated from human PBMC stimulated with anti-CD3/CD28 and restimulated with PMA and ionomycin for 4 hrs in the presence of brefeldin A assessed as reduction in IFN-gamma production at 100 to 500 nM; assay type: cell-based; conditions: T cell, dose 100-500 nM
T1 sequence (whole entry): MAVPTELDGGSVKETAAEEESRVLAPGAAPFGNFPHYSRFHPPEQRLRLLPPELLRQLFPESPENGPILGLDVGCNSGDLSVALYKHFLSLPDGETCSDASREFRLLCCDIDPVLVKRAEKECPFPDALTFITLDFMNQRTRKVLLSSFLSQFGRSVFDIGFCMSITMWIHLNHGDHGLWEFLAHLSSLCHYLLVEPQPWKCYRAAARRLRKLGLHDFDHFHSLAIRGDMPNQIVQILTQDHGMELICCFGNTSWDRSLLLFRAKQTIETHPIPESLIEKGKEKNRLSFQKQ

[2] = molecular target: T2, RNA 5'-monophosphate methyltransferase (Homo sapiens, UniProt Q7Z5W3); test: Binding affinity towards N-terminal ePL-tagged BCDIN3D (unknown origin) transfected in human A549 cells preincubated for 1 hr and measured by InCellPulse thermal stability assay; assay type: cell-based
T2 sequence (Q7Z5W3 whole entry): T1 sequence (whole entry)

[3] = molecular target: T2, RNA 5'-monophosphate methyltransferase; test: Inhibition of BCDIN3D (unknown origin) using mini-helix and SAM as substrate incubated for 1 hr by RapidFire High Throughput mass spectrometry

| SMILES | inhibition [1] | IC50 [2] | IC50 [3] | Activity (Mus musculus) |
| --- | --- | --- | --- | --- |
| Cn1ncc2c(NC(C)(C)C)nc(NC[C@H](N)c3ccccc3)nc21 | Active |  |  | Active |
| Cn1ncc2c(NC34CC(C3)C4)nc(NCC(N)c3ccccc3)nc21 (stereo not drawn) |  | 0.889 µM | 0.189 µM |  |
| Cc1cc(Nc2nc(NCC(N)CF)nc3c2cnn3C)ccc1Cl (stereo not drawn) |  | 5.5 µM | 6.17 µM |  |
| Cc1ccc(CNc2nc(NCCN)nc3c2cnn3C)cc1Cl |  | 6.46 µM | 1.65 µM |  |
| Cn1ncc2c(NC3CCC(F)(F)C3)nc(NC[C@H](N)c3ccccc3)nc21 (stereo partly drawn) |  | 0.58 µM | 0.45 µM |  |

More lines, main results first:

| inhibition [1] | IC50 [2] | IC50 [3] | SMILES | Activity (Mus musculus) |
| --- | --- | --- | --- | --- |
|  | 4.65 µM | 1 µM | Cn1ncc2c(Nc3cc(F)cc(F)c3)nc(NCC3(N)CC3)nc21 |  |
|  | 10.8 µM | 7.65 µM | CNc1nc(NC[C@](C)(N)c2ccccc2)nc2c1cnn2C |  |
| Active |  |  | Cn1ncc2c(Nc3ccc(Cl)cc3)nc(NC[C@H](N)c3ccccc3)nc21 | Active |
|  | 2.99 µM | 1.26 µM | COc1cc(Nc2nc(NCC3(N)CC3)nc3c2cnn3C)cc(OC)c1 |  |
|  | 0.133 µM | 0.0381 µM | Cn1ncc2c(Nc3ccc(C(F)(F)F)nc3)nc(NC[C@@](C)(N)c3ccccc3)nc21 |  |
|  | 6.67 µM |  | Cn1ncc2c(Nc3ccc(C(F)(F)F)cc3)nc(NCC3(N)COC3)nc21 |  |
|  | 0.034 µM | 0.017 µM | Cn1ncc2c(NCC3CC(C(F)(F)F)C3)nc(NC[C@H](N)c3ccccc3)nc21 (stereo partly drawn) |  |
